Data taken from ChEMBL document CHEMBL5223164 (ACS Med Chem Lett, 2023).

Assays:
[1] = molecular target: Somatostatin receptor type 1 (Homo sapiens, UniProt P30872); assay: Agonist activity at human SST1 receptor expressed in CHO-K1 cells assessed as inhibition of NKH477-induced intracellular cAMP accumulation incubated for 20 mins by HTRF assay; format: cell-based
[2] = molecular target: Somatostatin receptor type 5 (Homo sapiens, UniProt P35346); assay: Agonist activity at human SST5 receptor expressed in CHO-K1 cells assessed as inhibition of NKH477-induced intracellular cAMP accumulation incubated for 20 mins by HTRF assay; format: cell-based
Sequence of Somatostatin receptor type 5 (P35346 whole entry): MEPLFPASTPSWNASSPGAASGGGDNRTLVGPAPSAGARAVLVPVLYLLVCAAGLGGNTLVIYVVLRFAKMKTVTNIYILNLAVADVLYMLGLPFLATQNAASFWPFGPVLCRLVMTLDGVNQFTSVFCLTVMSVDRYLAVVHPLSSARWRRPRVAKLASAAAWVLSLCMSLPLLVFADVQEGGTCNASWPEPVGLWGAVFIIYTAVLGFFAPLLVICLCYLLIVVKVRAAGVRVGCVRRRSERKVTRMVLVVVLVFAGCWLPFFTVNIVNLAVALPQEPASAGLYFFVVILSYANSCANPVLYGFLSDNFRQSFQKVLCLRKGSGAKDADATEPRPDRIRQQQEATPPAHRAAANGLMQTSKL

[3] = molecular target: Somatostatin receptor type 4 (Homo sapiens, UniProt P31391); assay: Agonist activity at human SST4 receptor expressed in CHO-K1 cells assessed as inhibition of NKH477-induced intracellular cAMP accumulation incubated for 20 mins by HTRF assay; format: cell-based
Sequence of Somatostatin receptor type 4 (P31391 whole entry): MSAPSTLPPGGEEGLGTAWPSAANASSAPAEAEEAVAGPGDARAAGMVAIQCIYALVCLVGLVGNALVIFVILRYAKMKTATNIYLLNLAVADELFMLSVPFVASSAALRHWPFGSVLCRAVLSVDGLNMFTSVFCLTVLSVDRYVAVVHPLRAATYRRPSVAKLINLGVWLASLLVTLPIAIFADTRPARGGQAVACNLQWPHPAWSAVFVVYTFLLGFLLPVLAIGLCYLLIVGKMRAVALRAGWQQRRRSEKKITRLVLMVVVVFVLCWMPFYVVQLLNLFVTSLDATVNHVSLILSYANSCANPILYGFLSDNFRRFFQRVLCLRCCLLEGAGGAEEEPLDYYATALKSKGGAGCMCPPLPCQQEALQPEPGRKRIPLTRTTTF

[4] = molecular target: Somatostatin receptor type 3 (Homo sapiens, UniProt P32745); assay: Agonist activity at human SST3 receptor expressed in CHO-K1 cells assessed as inhibition of NKH477-induced intracellular cAMP accumulation incubated for 20 mins by HTRF assay; format: cell-based
Sequence of Somatostatin receptor type 3 (P32745 whole entry): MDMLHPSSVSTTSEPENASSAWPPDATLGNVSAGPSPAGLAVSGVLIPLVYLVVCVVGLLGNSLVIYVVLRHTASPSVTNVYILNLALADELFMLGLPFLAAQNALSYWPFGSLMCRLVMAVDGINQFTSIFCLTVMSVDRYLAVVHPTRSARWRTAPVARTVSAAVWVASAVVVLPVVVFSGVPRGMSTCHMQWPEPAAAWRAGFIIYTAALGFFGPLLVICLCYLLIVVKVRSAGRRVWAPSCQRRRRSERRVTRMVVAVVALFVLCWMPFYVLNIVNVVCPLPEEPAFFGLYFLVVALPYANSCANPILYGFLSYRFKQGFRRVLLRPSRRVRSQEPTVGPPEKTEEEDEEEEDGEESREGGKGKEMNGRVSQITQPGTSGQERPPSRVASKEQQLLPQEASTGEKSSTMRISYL

[5] = molecular target: Somatostatin receptor type 2 (Homo sapiens, UniProt P30874)
Sequence of Somatostatin receptor type 2 (Homo sapiens, UniProt P30874) (P30874 whole entry): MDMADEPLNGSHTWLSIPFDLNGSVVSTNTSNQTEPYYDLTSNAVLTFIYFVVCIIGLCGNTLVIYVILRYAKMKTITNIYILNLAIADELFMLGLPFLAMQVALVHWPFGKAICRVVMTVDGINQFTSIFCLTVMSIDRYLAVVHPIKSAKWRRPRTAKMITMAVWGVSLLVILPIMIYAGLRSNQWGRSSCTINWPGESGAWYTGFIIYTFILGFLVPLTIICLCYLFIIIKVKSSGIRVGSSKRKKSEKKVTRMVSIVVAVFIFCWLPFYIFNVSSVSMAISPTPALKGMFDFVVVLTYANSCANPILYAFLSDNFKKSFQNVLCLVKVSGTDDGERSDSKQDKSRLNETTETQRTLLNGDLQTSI
Description: Agonist activity at human SST2 receptor expressed in CHO-K1 cells assessed as inhibition of NKH477-induced intracellular cAMP accumulation incubated for 20 mins by HTRF assay

[6] = molecular target: Voltage-gated inwardly rectifying potassium channel KCNH2 (Homo sapiens, UniProt Q12809); assay: Inhibition of hERG by fluorescence polarization assay; format: toxicity
Sequence of Voltage-gated inwardly rectifying potassium channel KCNH2 (Q12809 whole entry): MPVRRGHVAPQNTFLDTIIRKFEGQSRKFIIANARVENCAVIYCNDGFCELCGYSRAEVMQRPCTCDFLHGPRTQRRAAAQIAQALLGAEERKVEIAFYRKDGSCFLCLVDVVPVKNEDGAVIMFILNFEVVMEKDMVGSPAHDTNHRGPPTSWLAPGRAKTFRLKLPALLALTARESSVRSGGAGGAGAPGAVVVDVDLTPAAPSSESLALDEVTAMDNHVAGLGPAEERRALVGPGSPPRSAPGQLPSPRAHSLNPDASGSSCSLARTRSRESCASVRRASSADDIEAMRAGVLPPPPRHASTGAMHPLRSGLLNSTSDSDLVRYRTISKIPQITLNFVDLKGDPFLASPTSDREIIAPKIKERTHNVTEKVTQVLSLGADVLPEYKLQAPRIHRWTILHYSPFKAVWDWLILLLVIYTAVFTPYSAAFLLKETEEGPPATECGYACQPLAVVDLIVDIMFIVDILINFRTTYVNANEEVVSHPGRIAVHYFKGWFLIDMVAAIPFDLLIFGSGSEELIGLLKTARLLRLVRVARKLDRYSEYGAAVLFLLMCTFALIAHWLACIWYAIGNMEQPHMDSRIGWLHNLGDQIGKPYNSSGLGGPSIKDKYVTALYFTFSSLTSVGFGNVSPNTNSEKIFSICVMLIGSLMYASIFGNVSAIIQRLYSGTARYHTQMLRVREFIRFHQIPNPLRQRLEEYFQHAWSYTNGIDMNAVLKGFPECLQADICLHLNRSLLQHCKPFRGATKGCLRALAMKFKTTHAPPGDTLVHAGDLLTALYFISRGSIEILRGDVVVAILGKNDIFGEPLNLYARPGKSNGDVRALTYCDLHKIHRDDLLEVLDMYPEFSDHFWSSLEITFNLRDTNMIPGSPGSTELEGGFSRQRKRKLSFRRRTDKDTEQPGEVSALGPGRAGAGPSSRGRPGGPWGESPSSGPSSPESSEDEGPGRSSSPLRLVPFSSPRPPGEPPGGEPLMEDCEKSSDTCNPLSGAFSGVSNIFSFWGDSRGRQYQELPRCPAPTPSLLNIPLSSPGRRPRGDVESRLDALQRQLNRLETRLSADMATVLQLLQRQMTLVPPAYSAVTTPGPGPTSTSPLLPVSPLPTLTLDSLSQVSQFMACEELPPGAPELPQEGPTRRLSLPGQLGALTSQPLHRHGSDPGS

[7] = molecular target: T1, Cytochrome P450 2D6 (Homo sapiens, UniProt P10635); assay: Inhibition of human CYP2D6 expressed in insect cell microsomes in presence of NADP+ by fluorescence based analysis
T1 sequence (P10635 whole entry): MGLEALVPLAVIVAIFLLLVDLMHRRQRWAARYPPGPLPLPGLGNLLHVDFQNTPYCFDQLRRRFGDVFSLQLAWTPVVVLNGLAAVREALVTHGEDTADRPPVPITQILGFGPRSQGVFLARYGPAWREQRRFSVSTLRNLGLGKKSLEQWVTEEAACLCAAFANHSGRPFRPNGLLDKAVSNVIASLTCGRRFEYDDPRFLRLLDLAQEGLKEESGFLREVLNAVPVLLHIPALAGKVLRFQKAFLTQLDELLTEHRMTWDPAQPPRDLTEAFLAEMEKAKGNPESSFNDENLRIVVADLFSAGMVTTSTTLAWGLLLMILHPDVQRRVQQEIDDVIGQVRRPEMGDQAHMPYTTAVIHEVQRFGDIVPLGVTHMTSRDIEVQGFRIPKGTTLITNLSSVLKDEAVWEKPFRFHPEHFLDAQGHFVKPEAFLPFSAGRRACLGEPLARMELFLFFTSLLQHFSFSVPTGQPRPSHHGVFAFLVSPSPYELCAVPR

[8] = molecular target: T2, Cytochrome P450 2C9 (Homo sapiens, UniProt P11712); assay: Inhibition of human CYP2C9 expressed in insect cell microsomes at 10 uM in presence of NADP+ by fluorescence based analysis; format: ADME, Microsome
T2 sequence (P11712 whole entry): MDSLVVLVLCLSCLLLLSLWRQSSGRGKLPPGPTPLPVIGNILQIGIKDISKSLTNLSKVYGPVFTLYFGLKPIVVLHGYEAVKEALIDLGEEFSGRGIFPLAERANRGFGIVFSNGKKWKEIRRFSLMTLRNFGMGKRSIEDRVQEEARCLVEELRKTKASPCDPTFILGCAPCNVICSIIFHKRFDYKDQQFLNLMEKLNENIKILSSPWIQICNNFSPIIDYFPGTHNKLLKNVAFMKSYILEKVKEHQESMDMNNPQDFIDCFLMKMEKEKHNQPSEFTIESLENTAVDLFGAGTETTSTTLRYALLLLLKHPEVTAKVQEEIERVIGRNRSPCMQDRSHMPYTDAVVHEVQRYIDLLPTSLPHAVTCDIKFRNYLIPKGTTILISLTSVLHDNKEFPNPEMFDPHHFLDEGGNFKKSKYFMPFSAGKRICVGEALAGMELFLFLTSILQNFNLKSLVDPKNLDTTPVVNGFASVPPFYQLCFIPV

[9] = molecular target: T3, Cytochrome P450 3A4 (Homo sapiens, UniProt P08684); assay: Inhibition of human CYP3A4 expressed in insect cell microsomes at 10 uM in presence of NADP+ by fluorescence based analysis; format: ADME, Microsome
T3 sequence (P08684 whole entry): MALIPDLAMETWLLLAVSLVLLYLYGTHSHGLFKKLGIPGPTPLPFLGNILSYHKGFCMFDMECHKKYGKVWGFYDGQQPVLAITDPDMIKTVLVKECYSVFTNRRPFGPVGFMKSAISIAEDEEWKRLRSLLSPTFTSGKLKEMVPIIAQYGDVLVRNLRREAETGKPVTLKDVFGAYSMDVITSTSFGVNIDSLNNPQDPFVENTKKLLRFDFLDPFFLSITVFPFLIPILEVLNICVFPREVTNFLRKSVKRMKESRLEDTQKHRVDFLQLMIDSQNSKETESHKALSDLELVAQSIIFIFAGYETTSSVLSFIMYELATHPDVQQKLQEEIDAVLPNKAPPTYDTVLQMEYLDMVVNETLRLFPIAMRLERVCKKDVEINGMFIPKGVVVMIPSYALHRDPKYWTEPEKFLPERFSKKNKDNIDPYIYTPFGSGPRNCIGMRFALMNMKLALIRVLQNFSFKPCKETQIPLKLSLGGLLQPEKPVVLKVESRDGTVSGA

[10] = molecular target: T4, Cytochrome P450 2C19 (Homo sapiens, UniProt P33261); assay: Inhibition of human CYP2C19 expressed in insect cell microsomes at 10 uM in presence of NADP+ by fluorescence based analysis; format: ADME, Microsome
[11] = molecular target: T3, Cytochrome P450 3A4; assay: Inhibition of human CYP3A4 expressed in insect cell microsomes in presence of NADP+ by fluorescence based analysis
[12] = molecular target: T2, Cytochrome P450 2C9; assay: Inhibition of human CYP2C9 expressed in insect cell microsomes in presence of NADP+ by fluorescence based analysis
[13] = molecular target: T1, Cytochrome P450 2D6; assay: Inhibition of human CYP2D6 expressed in insect cell microsomes at 10 uM in presence of NADP+ by fluorescence based analysis; format: ADME, Microsome
[14] = molecular target: T4, Cytochrome P450 2C19; assay: Inhibition of human CYP2C19 expressed in insect cell microsomes in presence of NADP+ by fluorescence based analysis
[15] = in vivo; details: Sprague-Dawley, rat, po, 10 mg/kg
[16] = Half life in Sprague-Dawley rat at 2.5 mg/kg, iv; details: in vivo
[17] = molecular target: Somatostatin receptor type 2 (Rattus norvegicus, UniProt P30680); assay: Agonist activity at rat SST2 receptor
[18] = Clearance in Sprague-Dawley rat at 2.5 mg/kg, iv; details: in vivo
[19] = in vivo; details: Sprague-Dawley, rat, po, 10 mg/kg; remark: listed apart in the source
[20] = Volume of distribution at steady state in Sprague-Dawley rat at 2.5 mg/kg, iv; details: in vivo
[21] = in vivo; details: beagle, dog, po, 10 mg/kg
[22] = Volume of distribution at steady state in Beagle dog at 2.5 mg/kg, iv; details: in vivo
[23] = Half life in Beagle dog at 2.5 mg/kg, iv; details: in vivo
[24] = Clearance in Beagle dog at 2.5 mg/kg, iv; details: in vivo
[25] = molecular target: Somatostatin receptor type 2 (Canis lupus familiaris, UniProt Q49LX6); assay: Agonist activity at dog SST2 receptor
Sequence of Somatostatin receptor type 2 (Canis lupus familiaris, UniProt Q49LX6) (Q49LX6 whole entry): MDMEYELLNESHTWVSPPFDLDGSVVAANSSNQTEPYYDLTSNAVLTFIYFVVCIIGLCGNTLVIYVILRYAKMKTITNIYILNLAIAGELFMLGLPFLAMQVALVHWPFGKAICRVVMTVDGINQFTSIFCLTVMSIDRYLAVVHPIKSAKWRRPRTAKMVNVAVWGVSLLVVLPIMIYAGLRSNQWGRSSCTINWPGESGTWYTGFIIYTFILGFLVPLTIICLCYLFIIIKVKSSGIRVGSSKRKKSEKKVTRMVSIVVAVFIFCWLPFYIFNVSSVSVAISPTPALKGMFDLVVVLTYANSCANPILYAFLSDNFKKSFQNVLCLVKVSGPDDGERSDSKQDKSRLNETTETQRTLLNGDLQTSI

[26] = in vivo; details: beagle, dog, po, 10 mg/kg; remark: listed apart in the source

Sequence of Somatostatin receptor type 1 (P30872 whole entry): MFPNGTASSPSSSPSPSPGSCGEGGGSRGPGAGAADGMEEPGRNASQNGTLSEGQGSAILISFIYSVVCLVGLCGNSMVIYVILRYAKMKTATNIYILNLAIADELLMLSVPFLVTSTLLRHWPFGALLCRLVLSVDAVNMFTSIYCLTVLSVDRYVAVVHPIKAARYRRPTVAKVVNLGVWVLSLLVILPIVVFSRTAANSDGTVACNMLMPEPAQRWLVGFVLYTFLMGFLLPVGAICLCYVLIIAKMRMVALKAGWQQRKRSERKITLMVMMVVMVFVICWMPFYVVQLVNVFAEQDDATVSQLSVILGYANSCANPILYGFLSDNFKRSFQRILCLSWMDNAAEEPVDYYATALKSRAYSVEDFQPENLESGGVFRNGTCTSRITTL

| Structure (SMILES) | EC50 [1] | EC50 [2] | EC50 [3] | EC50 [4] | EC50 [5] | IC50 [6] | further results |
| --- | --- | --- | --- | --- | --- | --- | --- |
| Cc1cc(F)cc(-c2cnc3ccc(-c4cccc(C#N)c4O)cc3c2N2CCC(N)CC2)c1 | > 1000 nM | > 1000 nM | > 1000 nM | > 1000 nM | 0.17 nM |  |  |
| N#Cc1cccc(-c2ccc3ncc(-c4cccc(F)c4)c(N4CCC(N)CC4)c3c2)c1O | > 1000 nM | > 1000 nM | 1000 nM | > 1000 nM |  | > 10000 nM |  |
| COc1cc(F)cc(-c2cnc3ccc(-c4cccc(C#N)c4O)cc3c2N2CCC(N)CC2)c1 | > 1000 nM | > 1000 nM | > 1000 nM | > 1000 nM |  |  |  |
| NC1CCN(c2c(-c3cc(F)cc(F)c3)cnc3ccc(-c4cccc(O)c4)cc23)CC1 | > 1000 nM | > 1000 nM | 15.8 nM | > 1000 nM |  | < 1000 nM |  |
| NC1CCN(c2c(-c3cc(F)cc(F)c3)cnc3ccc(-c4cccc(F)c4O)cc23)CC1 | > 1000 nM | > 1000 nM | 25.1 nM | > 1000 nM |  | 1000 nM |  |
| N#Cc1cccc(-c2ccc3ncc(-c4cc(F)cc(F)c4)c(N4CCC(N)CC4)c3c2)c1 |  |  |  |  | 1.4 nM |  |  |
| NC1CCN(c2c(-c3cc(F)cc(F)c3)cnc3ccc(-c4ccccc4O)cc23)CC1 |  |  |  |  | 3.4 nM |  |  |
| N#Cc1cc(F)cc(-c2ccc3ncc(-c4cc(F)cc(F)c4)c(N4CCC(N)CC4)c3c2)c1O | > 1000 nM | > 1000 nM | > 1000 nM |  | 0.34 nM | 10000 nM | IC50 [7]: > 10000 nM; inhibition (INH) [8]: Not Active; inhibition (INH) [9]: Not Active; inhibition (INH) [10]: Not Active; IC50 [11]: 10000 nM; IC50 [12]: 6310 nM; inhibition (INH) [13]: Not Active; IC50 [14]: 3980 nM |
| N#Cc1cccc(-c2ccc3ncc(-c4cc(F)cc(F)c4)c(N4CCC(N)CC4)c3c2)c1O [PALTUSOTINE] | > 1000 nM | > 1000 nM | 1000 nM | > 1000 nM |  |  | AUC(0-inf) [15]: 1610 ng·h/mL; IC50 [7]: > 10000 nM; half-life [16]: 2.8 h; EC50 [17]: 1.2 nM; inhibition (INH) [8]: Not Active; inhibition (INH) [9]: Not Active; clearance [18]: 9.1 mL/min/kg; Cmax [19]: 129 ng/mL; inhibition (INH) [10]: Not Active; IC50 [11]: > 10000 nM; Vd [20]: 1.5 L/kg; IC50 [12]: 7940 nM; inhibition (INH) [13]: Not Active; Cmax [21]: 1370 ng/mL; Vd [22]: 3.5 L/kg; half-life [23]: 7.5 h; clearance [24]: 9.4 mL/min/kg; EC50 [25]: 6.6 nM; IC50 [14]: 5010 nM; AUC(0-inf) [26]: 10400 ng·h/mL |
| NC1CCN(c2c(-c3cc(Cl)cc(Cl)c3)cnc3ccccc23)CC1 |  |  |  |  | 140 nM |  |  |
